Assay results from patent US9921215B2, “Method for detecting ligand using FRET biosensor” (KOREA RESEARCH INSTITUTE OF BIOSCIENCE AND BIOTECHNOLOGY, priority 2009, dated 2018).

Assays:
[1] = molecular target: T1, CaraFY-PR arabinose FRET biosensor: fusion protein ECFP-ARBP-EYFP of E. coli MG1655 ARBP (arabinose-binding protein) (Escherichia coli, UniProt P02924); experiment: Ligand titration of FRET biosensor CaraFY-PR (arabinose sensor) at its critical temperature; parameters: 6xHis (C); made in house; host or cells: E. coli
Excerpt: Likewise, in order to construct an expression vector of CaraFY-PR, a biosensor for measuring arabinose, ECFP gene was amplified by PCR using primers of SEQ ID NOs: 3 and 10, and ARBP gene was amplified by PCR using a chromosomal DNA, extracted from E. coli MG1655, as a template, and primers of SEQ ID NOs: 11 and 12.
The amplified ECFP and ARBP genes were amplified by PCR using primers of SEQ ID NOs: 3 and 12, thus obtaining a synthetic gene of ECFP-ARBP. The ECFP-ARBP gene was inserted into the ECFP-MBP gene position of the pECMY-BII expression vector, thereby constructing a pECaraFY-PR vector.
(§1) The fluorescence of the FRET biosensors was measured using the fluorescence analysis system Cary Eclipse (Varian Inc., Mulgrave, Australia) under the conditions in which the proteins of each biosensor were controlled to the same concentration of 0.5 μM in 0.5 ml of PBS buffer (pH 7.4). […]
(§2) Also, Δratio that defines the detection capability of the FRET biosensor was determined according to the following equation 4: Δratio=ratiomax−ratiomin [Equation 4]
(§3) The titration curves of the FRET biosensors were expressed as Sigmoidal curves using the 4-parameter Hill equation of Sigmaplot 10.0 (Systat software Inc., USA) based on changes in the ratio measured while increasing the ligand concentration from 1 nM to 10 mM. […]
Target sequence in this assay (P02924 other isoform, or with tags, fused parts or gaps): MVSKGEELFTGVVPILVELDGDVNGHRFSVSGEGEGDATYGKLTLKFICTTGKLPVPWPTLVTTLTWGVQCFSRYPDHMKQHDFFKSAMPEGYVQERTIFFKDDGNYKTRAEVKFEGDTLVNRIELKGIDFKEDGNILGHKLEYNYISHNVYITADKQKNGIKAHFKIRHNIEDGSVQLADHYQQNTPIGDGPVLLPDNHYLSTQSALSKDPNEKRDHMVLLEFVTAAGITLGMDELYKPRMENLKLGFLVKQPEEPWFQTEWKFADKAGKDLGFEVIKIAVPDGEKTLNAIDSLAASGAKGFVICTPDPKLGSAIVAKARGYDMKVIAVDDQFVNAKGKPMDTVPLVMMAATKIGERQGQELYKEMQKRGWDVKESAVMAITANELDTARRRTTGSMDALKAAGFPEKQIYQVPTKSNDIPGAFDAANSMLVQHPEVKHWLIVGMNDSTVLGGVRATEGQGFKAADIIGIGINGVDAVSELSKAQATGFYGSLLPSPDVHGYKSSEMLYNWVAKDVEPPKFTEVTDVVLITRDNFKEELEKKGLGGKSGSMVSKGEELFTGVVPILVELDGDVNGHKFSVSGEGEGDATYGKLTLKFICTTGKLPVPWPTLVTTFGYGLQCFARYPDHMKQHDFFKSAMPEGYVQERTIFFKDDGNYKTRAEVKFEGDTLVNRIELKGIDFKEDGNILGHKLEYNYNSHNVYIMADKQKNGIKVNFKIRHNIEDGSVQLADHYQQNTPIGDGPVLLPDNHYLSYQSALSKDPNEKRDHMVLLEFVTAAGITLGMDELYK

[2] = molecular target: CalsBY-QV allose FRET biosensor: fusion protein ECFP-ALBP-EYFP of E. coli MG1655 ALBP (allose-binding protein) (Escherichia coli, UniProt P39265); experiment: Specificity of the allose FRET biosensor for various sugars; settings: critical temperature 49 °C; ligand 100 μM, 1 mM, 10 mM; ribose compared with measurement at 25 °C in U.S. Pat. No. 7,432,353
Procedure: (§4) Analysis of the specificities of the FRET biosensors for various ligands was performed using 19 kinds of sugars, including monosaccharides, polyscaccharides and sugar alcohols.
(§5) To measure the specificities of the sensors, each of the purified FRET biosensors was added to 0.5 ml of PBS buffer (pH 7.4) at a concentration of 0.5 μM such that the concentration of each ligand reached 100 μM, 1 mM, 10 mM, etc. In 3 minutes after the peltier device surrounding the cuvette has reached each of the critical temperatures determined in Example 3, fluorescence was measured.

[3] = molecular target: T1, CaraFY-PR arabinose FRET biosensor: fusion protein ECFP-ARBP-EYFP of E. coli MG1655 ARBP (arabinose-binding protein); experiment: Specificity of the arabinose FRET biosensor for various sugars; settings: critical temperature 49 °C; ligand 100 μM, 1 mM, 10 mM
Procedure: as §4, §5

[4] = molecular target: T2, CmglBY-SS glucose FRET biosensor: fusion protein ECFP-GGBP-EYFP of E. coli MG1655 GGBP (galactose/glucose-binding protein) (Escherichia coli, UniProt P0AEE5); experiment: Specificity of the glucose FRET biosensor for various sugars; settings: critical temperature 50 °C; ligand 100 μM, 1 mM, 10 mM
Procedure: as §4, §5
Target sequence in this assay (P0AEE5 24-332 limits assumed): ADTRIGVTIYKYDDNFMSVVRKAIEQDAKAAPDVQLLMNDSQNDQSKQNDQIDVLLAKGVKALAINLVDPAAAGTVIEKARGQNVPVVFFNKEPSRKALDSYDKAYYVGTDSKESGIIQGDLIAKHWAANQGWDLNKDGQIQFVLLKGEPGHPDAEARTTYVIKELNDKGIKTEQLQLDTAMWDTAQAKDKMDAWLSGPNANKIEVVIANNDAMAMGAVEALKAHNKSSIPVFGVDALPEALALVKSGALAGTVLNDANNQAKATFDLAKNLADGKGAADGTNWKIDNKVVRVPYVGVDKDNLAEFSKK

[5] = molecular target: T2, CmglBY-SS glucose FRET biosensor: fusion protein ECFP-GGBP-EYFP of E. coli MG1655 GGBP (galactose/glucose-binding protein); experiment: Ligand titration of FRET biosensor CmglBY-SS (glucose sensor) at its critical temperature; parameters: 6xHis (C); made in house; host or cells: E. coli
Excerpt: In addition, an expression vector of CmglBY-SS, a biosensor for measuring glucose used in the present invention, was constructed in the following manner.
First, ECFP gene was amplified by PCR using a pECFP vector as a template and a forward primer of SEQ ID NO: 3 together with a reverse primer of SEQ ID NO: 13 prepared to overlap with the nucleotide sequence of the N-terminus of GGBP. Likewise, GGBP gene was amplified by PCR using a chromosomal DNA, extracted from E. coli MG1655, as a template, and a forward primer of SEQ ID NO: 14 together with a reverse primer of SEQ ID NO: 15 containing a BamHI restriction sequence. […]
as §1, §2, §3
Target sequence in this assay (P0AEE5 24-332 with tags or gaps limits assumed): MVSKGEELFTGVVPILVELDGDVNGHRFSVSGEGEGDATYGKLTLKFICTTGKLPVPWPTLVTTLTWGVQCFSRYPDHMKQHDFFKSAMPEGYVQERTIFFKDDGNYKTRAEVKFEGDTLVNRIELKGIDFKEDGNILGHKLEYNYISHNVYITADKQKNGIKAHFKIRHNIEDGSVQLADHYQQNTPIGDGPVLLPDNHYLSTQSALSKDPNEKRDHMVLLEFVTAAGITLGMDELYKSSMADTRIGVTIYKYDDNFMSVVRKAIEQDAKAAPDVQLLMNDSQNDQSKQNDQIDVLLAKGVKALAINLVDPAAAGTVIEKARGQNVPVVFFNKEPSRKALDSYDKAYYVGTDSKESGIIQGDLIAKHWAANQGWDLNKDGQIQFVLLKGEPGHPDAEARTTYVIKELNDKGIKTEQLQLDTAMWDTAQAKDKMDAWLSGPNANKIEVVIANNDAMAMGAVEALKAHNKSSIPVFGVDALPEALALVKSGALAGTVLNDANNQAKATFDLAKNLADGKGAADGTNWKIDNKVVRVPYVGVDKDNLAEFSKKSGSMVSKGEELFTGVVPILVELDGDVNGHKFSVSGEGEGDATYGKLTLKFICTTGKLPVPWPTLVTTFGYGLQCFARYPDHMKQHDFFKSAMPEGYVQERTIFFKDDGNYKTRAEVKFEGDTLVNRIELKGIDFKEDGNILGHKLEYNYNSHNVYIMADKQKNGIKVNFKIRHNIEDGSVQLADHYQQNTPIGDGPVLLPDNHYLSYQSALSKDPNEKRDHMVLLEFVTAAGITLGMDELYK

[6] = cited from earlier work

Sequence of CalsBY-QV allose FRET biosensor: fusion protein ECFP-ALBP-EYFP of E. coli MG1655 ALBP (allose-binding protein) (P39265 24-311): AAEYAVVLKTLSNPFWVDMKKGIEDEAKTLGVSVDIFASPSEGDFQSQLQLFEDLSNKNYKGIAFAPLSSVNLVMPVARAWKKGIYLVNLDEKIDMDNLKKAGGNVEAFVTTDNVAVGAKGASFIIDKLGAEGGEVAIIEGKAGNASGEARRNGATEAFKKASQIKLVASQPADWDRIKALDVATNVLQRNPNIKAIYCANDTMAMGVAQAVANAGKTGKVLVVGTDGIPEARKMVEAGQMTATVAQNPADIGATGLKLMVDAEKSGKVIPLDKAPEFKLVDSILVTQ

OC1OC[C@H](O)[C@H](O)[C@H]1O (stereo partly shown) [arabinose]
Kd [1]: 67 ± 4 µM

OC1OC[C@@H](O)[C@@H](O)[C@H]1O (stereo partly shown) [ribose]
specificity for other sugars [2]: reduced specificity

OC[C@H]1OC(O)[C@H](O)[C@@H](O)[C@H]1O (stereo partly shown) [galactose]
affinity [3]: very high affinity
affinity [4]: very high affinity

OC[C@H]1OC(O)[C@H](O)[C@@H](O)[C@@H]1O (stereo partly shown) [glucose]
Kd [5]: 9.2 ± 0.5 µM

B1: ARBP: E. coli periplasmic arabinose-binding protein (protein, UniProt P02924 24-329, looked up)
L-arabinose-binding …: ENLKLGFLVKQPEEPWFQTEWKFADKAGKDLGFEVIKIAVPDGEKTLNAIDSLAASGAKGFVICTPDPKLGSAIVAKARGYDMKVIAVDDQFVNAKGKPMDTVPLVMMAATKIGERQGQELYKEMQKRGWDVKESAVMAITANELDTARRRTTGSMDALKAAGFPEKQIYQVPTKSNDIPGAFDAANSMLVQHPEVKHWLIVGMNDSTVLGGVRATEGQGFKAADIIGIGINGVDAVSELSKAQATGFYGSLLPSPDVHGYKSSEMLYNWVAKDVEPPKFTEVTDVVLITRDNFKEELEKKGLGGK
Unfolding temperature in the presence of ligand ([6]; 1 mM arabinose (ARBP) / glucose (GGBP)): 59 °C
Unfolding temperature in the absence of ligand ([6]; no arabinose (ARBP) / no glucose (GGBP)): 53.5 °C
